According to the supplement of paper PMC6045584:
± gives the standard deviation of the averaged measurements.

Tests used:
VINORELBINE = compound: CCC1=C[C@@H]2CN(C1)Cc1c([nH]c3ccccc13)[C@@](C(=O)OC)(c1cc3c(cc1OC)N(C)[C@H]1[C@@](O)(C(=O)OC)[C@H](OC(C)=O)[C@]4(CC)C=CCN5CC[C@]31[C@@H]54)C2 [VINORELBINE]; test: area under dose-response curve of surviving fraction (unscaled, Aref=0) (surviving fraction x log10(nM)); higher = more resistant; conditions: exposure time: 5 days; dose range 0.5-1000 nM
Outline: (§1)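 Inhibitor was applied to tumour cell lines at eight concentrations (0.5 to 1000 nM) for five days in 384-well plates. Luminescence from CellTiter-Glo, scaled to DMSO-only wells, gave surviving fractions in three screens per line, and these were fitted by 3-parameter logistic regression with the drc R package. The area under the curve is an unscaled activity area. Aref was 0, and dose was on a log10 scale.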

METHOTREXATE = compound: CN(Cc1cnc2nc(N)nc(N)c2n1)c1ccc(C(=O)N[C@@H](CCC(=O)O)C(=O)O)cc1 [METHOTREXATE]; test: as above; conditions: exposure time: 5 days; dose range 0.5-1000 nM
Outline: as §1

ERLOTINIB = compound: C#Cc1cccc(Nc2ncnc3cc(OCCOC)c(OCCOC)cc23)c1 [ERLOTINIB]; test: as above; conditions: exposure time: 5 days; dose range 0.5-1000 nM
Outline: as §1

GEMCITABINE = compound: Nc1ccn([C@@H]2O[C@H](CO)[C@@H](O)C2(F)F)c(=O)n1 [GEMCITABINE]; test: as above; conditions: exposure time: 5 days; dose range 0.5-1000 nM
Outline: as §1

[1] = compound: Cc1nc(Nc2n[nH]c3c2CN(C(=O)N[C@H](CN(C)C)c2ccccc2)C3(C)C)c2sccc2n1; test: as above; conditions: exposure time: 5 days; dose range 0.5-1000 nM
Outline: as §1

[2] = compound: O=C(NOCC1CC1)c1ccc(F)c(F)c1Nc1ccc(I)cc1Cl; test: as above; conditions: exposure time: 5 days; dose range 0.5-1000 nM
Outline: as §1

MK0752 = compound: O=C(O)CC[C@H]1CC[C@@](c2cc(F)ccc2F)(S(=O)(=O)c2ccc(Cl)cc2)CC1 [MK0752]; test: surviving fraction relative to DMSO-only wells; higher = less growth inhibition; conditions: exposure time: 5 days
Outline: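 Log-phase tumour cell lines were seeded at 250–500 cells per well in 384-well plates. After 24 hours they were exposed continuously for five days to inhibitors at 0.5, 1, 5, 10, 50, 100, 500 and 1000 nM. Viability was read by CellTiter-Glo luminescence after 10 minutes at room temperature, and surviving fraction is luminescence normalised to the median of DMSO-only wells. Each line was screened three times and kept only if replicate Pearson r >0.7 and median Z' >0.3.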

Test System	area under dose-response curve (VINORELBINE)	area under dose-response curve (METHOTREXATE)	area under dose-response curve (ERLOTINIB)	area under dose-response curve (GEMCITABINE)	area under dose-response curve [1]	area under dose-response curve [2]	surviving fraction (MK0752; 0.5 nM)	surviving fraction (MK0752; 1 nM)	surviving fraction (MK0752; 5 nM)	surviving fraction (MK0752; 10 nM)	surviving fraction (MK0752; 50 nM)	surviving fraction (MK0752; 100 nM)	surviving fraction (MK0752; 500 nM)	surviving fraction (MK0752; 1000 nM)
C33A CERVIX	1.62	2.33	3.19	1.15	0.95	2.3	1.12 ± 0.13	1.11 ± 0.08	1.06 ± 0.14	1.19 ± 0.083	1.09 ± 0.066	1.19 ± 0.18	1.08 ± 0.16	1.13 ± 0.1
CAL72 BONE	2.14	2.39	3.5	1.4	1.77	3.52	1.04 ± 0.025	1.1 ± 0.043	1.084 ± 0.0046	1.09 ± 0.021	1.11 ± 0.018	1.14 ± 0.034	1.102 ± 0.011	1.12 ± 0.04
G292 BONE	1.48	3.41	3.44	1.39	1.22	3.17	0.974 ± 0.015	1.03 ± 0.053	1.05 ± 0.033	1.05 ± 0.013	1.01 ± 0.018	0.989 ± 0.019	0.914 ± 0.037	0.86 ± 0.037
HUO3N1 BONE	2	2.8	3.54	1.51	2.38	3.35	1.02 ± 0.023	1.03 ± 0.021	1.051 ± 0.0083	1.08 ± 0.042	1.07 ± 0.042	1.08 ± 0.052	1.01 ± 0.02	0.9563 ± 0.0042
LNCAP PROSTATE	1.23	2.36	3.2	1.22	0.726	2.93	0.936 ± 0.14	0.927 ± 0.12	1.03 ± 0.26	0.887 ± 0.09	1.01 ± 0.098	1.02 ± 0.074	1.04 ± 0.21	1.01 ± 0.12
SCC003 HEADNECK	1.98	2.41	3.14	1.57	1.57	2.83	1.19 ± 0.02	1.12 ± 0.15	1.14 ± 0.045	1.13 ± 0.055	1.19 ± 0.12	1.24 ± 0.11	1.19 ± 0.13	1.2 ± 0.039
